Test [1] has as its target T7 RNA polymerase (Escherichia phage T7, UniProt P00573). The note with it: T7 RNA polymerase transcription, pTri β actin template, cap analog 1.6 mM, GTP 0.4 mM, 37° C. 2 h, 20% dPAGE gel.
Protocol: The gel shift assay was performed by using a pTri β actin template and the IVT reaction used linearized AmbLuc poly(A) DNA template and a [sequence] kit (Life Technologies Corporation). Radiation in the gel bands of interest was quantified by a phosphorimager (GE Healthcare).
To analyze capping efficiency during transcription a Gel Shift Assay was used. The Gel shift assay was performed using the MAXISCRIPT kit (Life Technologies Corporation) by following the manufacturer's protocol. A typical 20 μL T7 RNA polymerase transcription reaction contained the following reagents at the final concentrations indicated: linearized pTri β actin vector template, 0.5 μg; ATP, 2 mM; GTP, 0.4 mM; compound standard cap analog and alkynyl-derivatized cap analog 7, 1.6 mM each in separate reactions; 10× reaction buffer, 4 μl; T7 RNA polymerase, 50 units/μL; (α-^32P) ATP, 800 (Ci/mmol); and DEPC water. The control reaction was a normal in vitro transcription reaction, in which no cap analog was added. […] Radiation in the gel bands of interest was quantified by a phosphoroimager (GE Healthcare).
Due to the omission of CTP and UTP, only the 5′ end was transcribed by T7 RNA polymerase, producing a transcript of six nucleotides in length. The resulting transcription products were analyzed by 20% denaturing polyacrylamide/8 M urea gel.
Test [2] concerns HeLa cells. Nature of the test: Translation efficiency: luciferase activity after transfection of capped luciferase mRNA poly(A). The following applies: luciferase mRNA poly(A) transfected into HeLa cells, 16 h, versus m^7GpppG-capped mRNA. Format: cell-based. As to the method: Alkynyl-derivatized capped mRNAs were produced in vitro for use in translation assays. […] In order to hydrolyze the remaining plasmid DNA, 1 μL of TURBO DNase was added to the reaction mixture and further incubated at 37° C. for 15 min. Purification of transcription reactions was done by using the MEGAclear™ kit (Life Technologies Corp) as per manufacturer's protocol. The in vitro transcription results in a mixture of 5′analog-capped and uncapped mRNAs.
To determine the translational efficiency, the luciferase mRNA poly(A) product generated from the transcription reaction using a standard cap and the luciferase mRNA poly(A) product generated as described above using the alkyne-derivatized cap 7 were transfected separately into HeLa cells.
The HeLa cells (60,000/well in 24 well-plates) were seeded at least 12 h before transfection in growth medium without antibiotics. Capped RNA was prepared by mixing 600 ng of RNA, 2.5 μL of TFX-20™ (Promega), and 300 μL of serum-free DMEM in polystyrene tubes and incubated for 15 min at room temperature. […] The plate was mixed carefully to disrupt the cells and 10 μL of cell lysates from each transfection reactions were mixed with 100 μL of luciferase substrate (Promega) and measured immediately on a POLARstar OPTIMA Luminometer (BMG Labtech) in 96-well plates. […]

Sequence of T7 RNA polymerase (P00573 whole entry): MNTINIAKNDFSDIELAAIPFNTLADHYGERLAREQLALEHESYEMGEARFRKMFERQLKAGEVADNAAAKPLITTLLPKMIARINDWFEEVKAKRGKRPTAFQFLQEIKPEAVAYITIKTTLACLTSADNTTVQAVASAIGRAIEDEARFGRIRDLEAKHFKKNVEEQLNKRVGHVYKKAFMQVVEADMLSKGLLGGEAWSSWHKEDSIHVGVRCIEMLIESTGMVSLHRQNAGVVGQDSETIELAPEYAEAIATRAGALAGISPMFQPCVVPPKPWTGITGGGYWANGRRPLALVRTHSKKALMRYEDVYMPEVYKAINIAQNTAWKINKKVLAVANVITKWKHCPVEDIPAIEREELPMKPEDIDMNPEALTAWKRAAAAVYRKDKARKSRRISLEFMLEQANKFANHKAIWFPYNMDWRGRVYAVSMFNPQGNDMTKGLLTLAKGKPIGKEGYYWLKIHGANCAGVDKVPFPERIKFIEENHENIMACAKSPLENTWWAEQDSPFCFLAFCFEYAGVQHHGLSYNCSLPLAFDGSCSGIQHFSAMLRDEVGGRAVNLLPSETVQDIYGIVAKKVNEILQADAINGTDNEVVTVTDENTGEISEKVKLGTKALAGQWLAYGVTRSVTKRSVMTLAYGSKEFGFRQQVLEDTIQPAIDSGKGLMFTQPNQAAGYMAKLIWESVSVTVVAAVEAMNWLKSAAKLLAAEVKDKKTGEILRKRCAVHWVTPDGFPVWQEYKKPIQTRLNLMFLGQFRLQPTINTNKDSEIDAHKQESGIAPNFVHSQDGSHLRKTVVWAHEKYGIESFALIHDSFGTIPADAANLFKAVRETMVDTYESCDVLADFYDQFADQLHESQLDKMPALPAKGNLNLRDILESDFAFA

In test [1], `C#CCO[C@H]1[C@@H](O)[C@H](n2c[n+](C)c3c(=O)[nH]c(N)nc32)O[C@@H]1COP(=O)(O)OP(=O)(O)OP(=O)(O)OC[C@H]1O[C@@H](n2cnc3c(=O)[nH]c(N)nc32)[C@H](O)[C@@H]1O` [compound 7, m^7,3′-O-propargylG[5′]ppp[5′]G] yielded a capping efficiency of 60%. Besides, the entries for the “translational efficiency (luciferase signal) relative to mRNA capped with the standard cap analog” value in test [2] and in test [2] (listed as 3′-O-propargyl substituted cap analog) were “up to 3 fold” and 3.1 fold, respectively.

As to `Cn1c[n+]([C@@H]2O[C@H](COP(=O)(O)OP(=O)(O)OP(=O)(O)OC[C@H]3O[C@@H](n4cnc5c(=O)[nH]c(N)nc54)[C@H](O)[C@@H]3O)[C@@H](O)[C@H]2O)c2nc(N)[nH]c(=O)c21` [standard cap, m^7G(5′)ppp(5′)G, reference compound], the capping efficiency in test [1] was found to be 73%.

The values are drawn from patent publication US20160281095A1, “Alkynyl-Derivatized Cap Analogs, Preparation and Uses Thereof” (LIFE TECHNOLOGIES CORPORATION, priority 2011, published 2016).
